Assay results from patent publication US20260166039A1 (SCHRÖDINGER, INC., priority 2022, published 2026).
Like-named read-outs stand apart in the source and are kept apart here.

Columns and labels:
[1] = molecular target: T1, Wee1 kinase domain (Homo sapiens, UniProt P30291); test: Wee1 Kinase Biochemical Assay (ADP-Glo); conditions: 15 uM ATP
T1 construct: Wee1 kinase domain was purchased from Carna (catalog #05-177); purchased Carna 05-177
Outline: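 ADP-Glo luminescence readout of ADP produced by 1 nM kinase domain phosphorylating Poly(Lys,Tyr 4:1) (2 ng/mL) at 15 uM ATP. Reaction ran 4 h, 25 °C, in Tris/MgCl2 buffer with BSA and DTT. Inhibition scaled between DMSO (high) and saturating control inhibitor (low).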

[2] = tested on: phosphorylation of Cdc2 Y15 (Wee1 substrate) in A427 cells; test: Phosphorylated Cdc2 MSD Electrochemiluminescence Assay; type: cell-based; conditions: Homo sapiens
Outline: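 Read-out: percent residual phospho-Cdc2 Y15 relative to DMSO and positive-control Wee1 inhibitor, measured by MSD electrochemiluminescence capture/detection antibody assay in cell lysates. A427 cells received duplicate 3-fold compound dilution series 20 h post-seeding, with 6 h total incubation at 37 °C.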

[3] = class symbols, 1 nM Wee1 enzyme, 4 hours at 25° C.
[4] = A-427, class symbols, read-out: A427 pCDC2 MSD IC50

T1 sequence (P30291 299-569 limits assumed): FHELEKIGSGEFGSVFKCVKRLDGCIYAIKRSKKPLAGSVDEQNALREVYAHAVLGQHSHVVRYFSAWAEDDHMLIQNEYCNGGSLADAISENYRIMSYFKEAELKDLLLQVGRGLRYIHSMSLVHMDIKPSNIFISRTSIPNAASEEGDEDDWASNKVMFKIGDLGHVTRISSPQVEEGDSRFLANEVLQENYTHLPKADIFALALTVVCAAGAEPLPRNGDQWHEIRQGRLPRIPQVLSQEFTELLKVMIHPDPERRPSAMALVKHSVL

| SMILES | IC50 [1, 3] [nM] | IC50 [2, 4] [nM] | IC50 ([1]; Wee1 kinase domain, ADP-Glo) [nM] | IC50 ([2]; A-427, pCDC2 MSD) [nM] |
| --- | --- | --- | --- | --- |
| CC1(C)C[C@H]2N(c3cccc([C@@H]4CCCN4)n3)c3nc(Nc4ccc(N5CCOCC5)cc4)ncc3[C@@]2(C)CO1 (single isomer, unassigned) [Example 526] | < 10 | 100 to 1000 |  |  |
| CN[C@H](Cc1ccc(Nc2ncc3c(n2)N(c2cccc(N4C(=O)OC[C@@H]4C)n2)[C@@H]2CC(C)(C)OC[C@]32C)cc1)C(=O)O (single isomer, unassigned) [Example 323] |  |  | < 10 | 100 to 1000 |
| CC1(C)C[C@H]2N(c3cccc(N=S(C)(C)=O)n3)c3nc(Nc4ccc([C@H]5CCNC5)cc4)ncc3[C@@]2(C)CO1 (single isomer, unassigned) [Example 137] |  |  | < 10 | < 100 |
| CN1CCC[C@H](n2cc(Nc3ncc4c(n3)N(c3cccc(N=S(C)(C)=O)n3)[C@@H]3CC(C)(C)OC[C@]43C)cn2)C1 (single isomer, unassigned) [Example 199] |  |  | < 10 | 100 to 1000 |
| CN1[C@@H]2C[C@H]1CN(c1ccc(Nc3ncc4c(n3)N(c3cccc(N5CCCC5=O)n3)[C@@H]3CC(C)(C)OC[C@]43C)cc1)C2 [Example 703, 1-(6-((4bR,8aR)-4b,7,7-trimethyl-2-((4-((1R,5S)-6-methyl-3,6-diazabicyclo[3.1.1]heptan-3-yl)phenyl)amino)-4b,7,8,8a-tetrahydropyrano[3′,4′:4,5]pyrrolo[2,3-d]pyrimidin-9(5H)-yl)pyridin-2-yl)pyrrolidin-2-one] | < 10 | 100 to 1000 |  |  |
| CN1CCN(c2ccc(Nc3ncc4c(n3)N(c3ccn(C(F)(F)F)n3)[C@@H]3CC(C)(C)OC[C@]43C)cc2)CC1 (single isomer, unassigned) [Example 719] | < 10 | 1000 to 10000 |  |  |
| C[C@H]1COC(=O)N1c1cccc(N2c3nc(Nc4ccc([C@@H]5CCN(C)C5)nc4)ncc3[C@@]3(C)COC(C)(C)C[C@@H]23)n1 (single isomer, unassigned) [Example 265] |  |  | < 10 | < 100 |
| CC1(C)C[C@H]2N(c3cccc(N=S(C)(C)=O)n3)c3nc(Nc4ccc(C5CNC5)nc4)ncc3[C@@]2(C)CO1 (single isomer, unassigned) [Example 190] |  |  | < 10 | 100 to 1000 |
| CC1(C)C[C@H]2N(c3cccc(N=S(C)(C)=O)n3)c3nc(Nc4ccn(C(F)F)c(=O)c4)ncc3[C@@]2(C)CO1 (single isomer, unassigned) [Example 374] |  |  | < 10 | 100 to 1000 |
| CNCc1cccc(N2c3nc(Nc4ccc(C5(C)COC5)cc4)ncc3[C@@]3(C)COC(C)(C)C[C@@H]23)n1 (single isomer, unassigned) [Example 84] |  |  | < 10 | 100 to 1000 |
| CNCc1cccc(N2c3nc(Nc4ccc(N5CCN(C)C(=O)C5)cc4)ncc3[C@@]3(C)COC(C)(C)C[C@@H]23)n1 (single isomer, unassigned) [Example 450] | < 10 | 100 to 1000 |  |  |
| CN1CCCC(n2cc(Nc3ncc4c(n3)N(c3cccc(N=S(C)(C)=O)n3)C3CC(C)(C)OCC43C)cn2)C1 (single isomer, unassigned) [Example 202] |  |  | < 10 | 100 to 1000 |
| CNCc1cccc(N2c3nc(Nc4ccc(C5CCOCC5)nc4)ncc3[C@@]3(C)COC(C)(C)C[C@@H]23)n1 (single isomer, unassigned) [Example 56] |  |  | < 10 | 100 to 1000 |
| CN1CCC[C@@H](n2cc(Nc3ncc4c(n3)N(c3cccc(N=S(C)(C)=O)n3)[C@@H]3CC(C)(C)OC[C@]43C)cn2)C1 (single isomer, unassigned) [Example 201] |  |  | < 10 | 100 to 1000 |
| CN[C@@H](C)c1cccc(N2c3nc(Nc4ccn(C5CCOCC5)c(=O)c4)ncc3[C@@]3(C)COC(C)(C)C[C@@H]23)n1 (single isomer, unassigned) [Example 390] |  |  | < 10 | 100 to 1000 |
| CN(C)Cc1cccc(N2c3nc(Nc4ccn(C5CCOCC5)c(=O)c4)ncc3[C@@]3(C)COC(C)(C)C[C@@H]23)n1 (single isomer, unassigned) [Example 387] |  |  | < 10 | 1000 to 10000 |
| CN1CCC(c2ccc(Nc3ncc4c(n3)N(c3cccc(N5CCOC5=O)n3)[C@@H]3CC(C)(C)OC[C@]43C)cc2)CC1 (single isomer, unassigned) [Example 591] | < 10 | 100 to 1000 |  |  |
| C[C@H]1COC(=O)N1c1cccc(N2c3nc(Nc4ccc(N5CCNCC5)cc4)ncc3[C@@]3(C)COC(C)(C)C[C@@H]23)n1 (single isomer, unassigned) [Example 260] |  |  | < 10 | 100 to 1000 |
| Cc1cc(Nc2ncc3c(n2)N(c2cccc(N4C(=O)OC[C@@H]4C)n2)[C@@H]2CC(C)(C)OC[C@]32C)ccc1[C@@H]1CCNC1 (single isomer, unassigned) [Example 269] |  |  | < 10 | 100 to 1000 |

The remaining lines, values ahead:

| IC50 [1, 3] [nM] | IC50 [2, 4] [nM] | IC50 ([1]; Wee1 kinase domain, ADP-Glo) [nM] | IC50 ([2]; A-427, pCDC2 MSD) [nM] | SMILES |
| --- | --- | --- | --- | --- |
|  |  | < 10 | < 100 | Cc1cc(Nc2ncc3c(n2)N(c2cccc(N4C(=O)OC[C@@H]4C)n2)[C@@H]2CC(C)(C)OC[C@]32C)ccc1N1CCN(C)CC1 (single isomer, unassigned) [Example 237] |
| < 10 | 100 to 1000 |  |  | CN1CCN(c2ccc(Nc3ncc4c(n3)N(c3cccc(P(C)(C)=O)n3)[C@@H]3CC(C)(C)OC[C@]43C)cc2)CC1 (single isomer, unassigned) [Example 753] |
|  |  | < 10 | 100 to 1000 | CN1CCC[C@H]1c1ccc(Nc2ncc3c(n2)N(c2cccc(N=S(C)(C)=O)n2)[C@@H]2CC(C)(C)OC[C@]32C)cn1 (single isomer, unassigned) [Example 216] |
|  |  | < 10 | 100 to 1000 | CN1CCN(c2ccc(Nc3ncc4c(n3)N(c3cccc(C(C)(C)O)n3)[C@@H]3CC(C)(C)OC[C@]43C)cc2)CC1 (single isomer, unassigned) [Example 4] |
| < 10 | 100 to 1000 |  |  | CN1CC[C@@H](Oc2ccc(Nc3ncc4c(n3)N(c3cccc(C(C)(C)O)n3)C3CC(C)(C)OCC43C)cc2)C1 (stereo in doubt) [Example 423, 2-(6-((4bR,8aR)-4b,7,7-trimethyl-2-((4-(((R)-1-methylpyrrolidin-3-yl)oxy)phenyl)amino)-4b,7,8,8a-tetrahydropyrano[3′,4′:4,5]pyrrolo[2,3-d]pyrimidin-9(5H)-yl)pyridin-2-yl)propan-2-ol] |
|  |  | < 10 | 100 to 1000 | C[C@@H]1CN(c2ccc(Nc3ncc4c(n3)N(c3cccc(N5C(=O)OC[C@@H]5C)n3)[C@@H]3CC(C)(C)OC[C@]43C)cc2)CCN1C (single isomer, unassigned) [Example 313] |
|  |  | < 10 | < 100 | CN1CCC[C@H]1c1ccc(Nc2ncc3c(n2)N(c2cccc(N=S(C)(C)=O)n2)[C@@H]2CC(C)(C)OC[C@]32C)cc1 (single isomer, unassigned) [Example 126] |
|  |  | < 10 | 100 to 1000 | CNCc1cccc(N2c3nc(Nc4ccc(N5C[C@@H](C)O[C@@H](C)C5)cc4)ncc3[C@]3(C)COC(C)(C)C[C@H]23)n1 (single isomer, unassigned) [Example 20] |
| < 10 | 100 to 1000 |  |  | CN1C[C@@H]2CN(c3ccc(Nc4ncc5c(n4)N(c4cccc(C(C)(C)O)n4)[C@@H]4CC(C)(C)OC[C@]54C)cc3)C[C@@H]2C1 (single isomer, unassigned) [Example 446] |
| < 10 | 100 to 1000 |  |  | CN1C[C@H]2C[C@@H]1CN2c1ccc(Nc2ncc3c(n2)N(c2cccc(C(C)(C)O)n2)[C@@H]2CC(C)(C)OC[C@]32C)cc1F (single isomer, unassigned) [Example 427] |
